In patent publication US20170210723A1, “MOLECULES HAVING PESTICIDAL UTILITY, AND INTERMEDIATES, COMPOSITIONS, AND PROCESSES, RELATED THERETO” (priority 2016, published 2017):

How the values were obtained:
Format in all cases: in vivo
[1] = system: Cabbage Looper (Trichoplusia ni); assay: Bioassays on CL, 128-well diet tray assay; details: Trichoplusia ni; for mortality at 50 µg/cm2: 168 h, 50 μg/cm^2 on artificial diet, second instar larvae, five to seven days, read-out: CL % Control (or Mortality) rating
Summary of the method: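 Test molecule at 50 μg/cm^2 applied to the artificial diet surface (acetone-water) and dried; one to five second-instar T. ni larvae per well, eight wells per treatment, held at 25° C., 14:10 light-dark for five to seven days. Percent mortality averaged over wells.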

[2] = system: Beet Armyworm (Spodoptera exigua); assay: Bioassays on BAW, 128-well diet tray assay; details: Spodoptera exigua; for mortality at 50 µg/cm2: 168 h, 50 μg/cm^2 on artificial diet, second instar larvae, five to seven days, read-out: BAW % Control (or Mortality) rating
[3] = system: Yellow Fever Mosquito (Aedes aegypti); assay: Bioassays on Yellow Fever Mosquito larvae, 96-well plate; details: from 4000 ppm DMSO master plate, about 1 day-old larvae, 3 days
Protocol: Master plates containing 400 μg of a molecule dissolved in 100 μL of dimethyl sulfoxide (DMSO) (equivalent to a 4000 ppm solution) are used. A master plate of assembled molecules contains 15 μL per well. To this plate, 135 μL of a 90:10 water:acetone mixture is added to each well. A robot (Biomek® NXP Laboratory Automation Workstation) is programmed to dispense 15 μL aspirations from the master plate into an empty 96-well shallow plate (“daughter” plate). There are 6 reps (“daughter” plates) created per master. The created daughter plates are then immediately infested with YFM larvae.
The day before plates are to be treated, mosquito eggs are placed in Millipore water containing liver powder to begin hatching (4 g. into 400 mL). After the daughter plates are created using the robot, they are infested with 220 μL of the liver powder/larval mosquito mixture (about 1 day-old larvae). After plates are infested with mosquito larvae, a non-evaporative lid is used to cover the plate to reduce drying. Plates are held at room temperature for 3 days prior to grading. After 3 days, each well is observed and scored based on mortality. The results are indicated in the table entitled “Table ABC: Biological Results” (See Table Section). AGRICULTURALLY ACCEPTABLE ACID ADDITION SALTS, SALT DERIVATIVES, SOLVATES, ESTER DERIVATIVES, POLYMORPHS, ISOTOPES, AND RADIONUCLIDES

| Structure (SMILES) | mortality at 50 µg/cm2 [1] [%] | mortality at 50 µg/cm2 [2] [%] | YFM % Control (or Mortality) rating [3] | mortality at 0.05 µg/cm2 ([1]; 0.05 μg/cm^2, read-out: CL Percent control (or mortality)) [%] | mortality at 0.5 µg/cm2 ([1]; 0.5 μg/cm^2, read-out: CL Percent control (or mortality)) [%] | mortality at 5 µg/cm2 ([1]; 5 μg/cm^2, read-out: CL Percent control (or mortality)) [%] | mortality at 0.05 µg/cm2 ([2]; 0.05 μg/cm^2, read-out: BAW Percent control (or mortality)) [%] | mortality at 0.5 µg/cm2 ([2]; 0.5 μg/cm^2, read-out: BAW Percent control (or mortality)) [%] | mortality at 5 µg/cm2 ([2]; 5 μg/cm^2, read-out: BAW Percent control (or mortality)) [%] |
| --- | --- | --- | --- | --- | --- | --- | --- | --- | --- |
| CSCC[C@@H](NC(=O)c1ccc(/C=C/C(c2cc(Cl)c(Cl)c(Cl)c2)C(F)(F)F)cc1C(F)(F)F)C(=O)NCC(F)(F)F (stereo partly drawn) [F28, N—((R)-4-(Methylthio)-1-oxo-1-((2,2,2-trifluoroethyl)amino)butan-2-yl)-4-((E)-4,4,4-trifluoro-3-(3,4,5-trichlorophenyl)but-1-en-1-yl)-2-(trifluoromethyl)benzamide] | 50 to 100 | 50 to 100 | A (80-100) | – | – | – | – | – | – |
| C[C@H](CSCC(F)(F)F)NC(=O)c1ccc(/C=C/C(c2cc(Cl)c(F)c(Cl)c2)C(F)(F)F)cc1Br (stereo partly drawn) [F34, 2-Bromo-4-((E)-3-(3,5-dichloro-4-fluorophenyl)-4,4,4-trifluorobut-1-en-1-yl)-N—((R)-1-((2,2,2-trifluoroethyl)thio)propan-2-yl)benzamide] | 50 to 100 | 50 to 100 | A (80-100) | – | – | – | – | – | – |
| C[C@H](CS(=O)(=O)CC(F)(F)F)NC(=O)c1ccc(/C=C/C(c2cc(Cl)c(F)c(Cl)c2)C(F)(F)F)cc1C(F)(F)F (stereo partly drawn) [F36, 4-((E)-3-(3,5-Dichloro-4-fluorophenyl)-4,4,4-trifluorobut-1-en-1-yl)-N—((R)-1-((2,2,2-trifluoroethyl)sulfonyl)propan-2-yl)-2-(trifluoromethyl)benzamide] | 50 to 100 | 50 to 100 | A (80-100) | – | – | – | – | – | – |
| C[C@H](C[S+]([O-])CC(F)(F)F)NC(=O)c1ccc(/C=C/C(c2cc(Cl)c(F)c(Cl)c2)C(F)(F)F)cc1C(F)(F)F (stereo partly drawn) [F37] | 50 to 100 | 50 to 100 | A (80-100) | – | – | – | – | – | – |
| C[C@H](C[S+]([O-])CC(F)(F)F)NC(=O)c1ccc(/C=C/C(c2cc(Cl)c(Cl)c(Cl)c2)C(F)(F)F)cc1Br (stereo partly drawn) [F39, 2-Bromo-4-((E)-4,4,4-trifluoro-3-(3,4,5-trichlorophenyl)but-1-en-1-yl)-N-((2R)-1-((2,2,2-trifluoroethyl)sulfinyl)propan-2-yl)benzamide] | 50 to 100 | 50 to 100 | A (80-100) | – | – | – | – | – | – |
| Cc1cc(/C=C/C(c2cc(Cl)c(Cl)c(Cl)c2)C(F)(F)F)ccc1C(=O)N[C@H](C)CS(=O)(=O)CC(F)(F)F (stereo partly drawn) [F40, 2-Methyl-4-((E)-4,4,4-trifluoro-3-(3,4,5-trichlorophenyl)but-1-en-1-yl)-N—((R)-1-((2,2,2-trifluoroethyl)sulfonyl)propan-2-yl)benzamide] | 50 to 100 | 50 to 100 | A (80-100) | 100 | 100 | 100 | 60 | 100 | 100 |
| C[C@H](CSCC(F)(F)F)NC(=O)c1ccc(/C=C/C(c2cc(Br)c(Cl)c(Br)c2)C(F)(F)F)cc1C(F)(F)F (stereo partly drawn) [F41, 4-((E)-3-(3,5-Dibromo-4-chlorophenyl)-4,4,4-trifluorobut-1-en-1-yl)-N—((R)-1-((2,2,2-trifluoroethyl)thio)propan-2-yl)-2-(trifluoromethyl)benzamide] | 50 to 100 | 50 to 100 | A (80-100) | – | – | – | – | – | – |
| C[C@H](C[S+]([O-])CC(F)(F)F)NC(=O)c1ccc(/C=C/C(c2cc(Br)c(Cl)c(Br)c2)C(F)(F)F)cc1C(F)(F)F (stereo partly drawn) [F42, 4-((E)-3-(3,5-Dibromo-4-chlorophenyl)-4,4,4-trifluorobut-1-en-1-yl)-N-((2R)-1-((2,2,2-trifluoroethyl)sulfinyl)propan-2-yl)-2-(trifluoromethyl)benzamide] | 50 to 100 | 50 to 100 | A (80-100) | – | – | – | – | – | – |
| CC(C)(CSCC(F)(F)F)NC(=O)c1ccc(/C=C/C(c2cc(Cl)c(Cl)c(Cl)c2)C(F)(F)F)cc1C(F)(F)F (stereo not drawn) [F44, (E)-N-(2-methyl-1-((2,2,2-trifluoroethyl)thio)propan-2-yl)-4-(4,4,4-trifluoro-3-(3,4,5-trichlorophenyl)but-1-en-1-yl)-2-(trifluoromethyl)benzamide] | 50 to 100 | 50 to 100 | A (80-100) | – | – | – | – | – | – |
| C[C@H](CS(=O)(=O)NCC(F)(F)F)NC(=O)c1ccc(/C=C/C(c2cc(Cl)c(Cl)c(Cl)c2)C(F)(F)F)cc1C(F)(F)F (stereo partly drawn) [F45, 4-((E)-4,4,4-Trifluoro-3-(3,4,5-trichorophenyl)but-1-en-1-yl)-N—((R)-1-(N-(2,2,2-trifluoroethyl)sulfamoyl)propan-2-yl)-2-(trifluoromethyl)benzamide] | 50 to 100 | 50 to 100 | A (80-100) | – | – | – | – | – | – |
| Cc1cc(/C=C/C(c2cc(Cl)c(Cl)c(Cl)c2)C(F)(F)F)ccc1C(=O)N[C@H](C)C[S+]([O-])CC(F)(F)F (stereo partly drawn) [F46, 2-Methyl-4-((E)-4,4,4-trifluoro-3-(3,4,5-trichlorophenyl)but-1-en-1-yl)-N-((2R)-1-((2,2,2-trifluoroethyl)sulfinyl)propan-2-yl)benzamide] | 50 to 100 | 50 to 100 | A (80-100) | – | – | – | – | – | – |
| CC(C)(CS(=O)(=O)CC(F)(F)F)NC(=O)c1ccc(/C=C/C(c2cc(Cl)c(Cl)c(Cl)c2)C(F)(F)F)cc1C(F)(F)F (stereo not drawn) [F48, (E)-N-(2-Methyl-1-((2,2,2-trifluoroethyl)sulfonyl)propan-2-yl)-4-(4,4,4-trifluoro-3-(3,4,5-trichlorophenyl)but-1-en-1-yl)-2-(trifluoromethyl)benzamide] | 50 to 100 | 50 to 100 | A (80-100) | – | – | – | – | – | – |
| C[C@H](C[S+]([O-])CC(F)(F)F)NC(=O)c1ccc(/C=C/C(c2cc(Cl)c(Cl)c(Cl)c2)C(F)(F)F)cc1Cl (stereo partly drawn) [F50, 2-Chloro-4-((E)-4,4,4-trifluoro-3-(3,4,5-trichlorophenyl)but-1-en-1-yl)-N-((2R)-1-((2,2,2-trifluoroethyl)sulfinyl)propan-2-yl)benzamide] | 50 to 100 | 50 to 100 | A (80-100) | – | – | – | – | – | – |
| Cc1cc(/C=C/C(c2cc(Cl)c(Cl)c(Cl)c2)C(F)(F)F)ccc1C(=O)N[C@H](C)CSCC(F)(F)F (stereo partly drawn) [F51, 2-Methyl-4-((E)-4,4,4-trifluoro-3-(3,4,5-trichlorophenyl)but-1-en-1-yl)-N—((R)-1-((2,2,2-trifluoroethyl)thio)propan-2-yl)benzamide] | 50 to 100 | 50 to 100 | A (80-100) | – | – | – | – | – | – |
| C[C@H](CS(=O)(=O)CC(F)(F)F)NC(=O)c1ccc(/C=C/C(c2cc(Cl)c(F)c(Cl)c2)C(F)(F)F)cc1Br (stereo partly drawn) [F52, 2-Bromo-4-((E)-3-(3,5-dichloro-4-fluorophenyl)-4,4,4-trifluorobut-1-en-1-yl)-N—((R)-1-((2,2,2-trifluoroethyl)sulfonyl)propan-2-yl)benzamide] | 50 to 100 | 50 to 100 | A (80-100) | – | – | – | – | – | – |
| C[C@H](C[S+]([O-])CC(F)(F)F)NC(=O)c1ccc(/C=C/C(c2cc(Cl)c(C#N)c(Cl)c2)C(F)(F)F)cc1C(F)(F)F (stereo partly drawn) [F53, 4-((E)-3-(3,5-Dichloro-4-cyanophenyl)-4,4,4-trifluorobut-1-en-1-yl)-N-((2R)-1-((2,2,2-trifluoroethyl)sulfinyl)propan-2-yl)-2-(trifluoromethyl)benzamide] | 50 to 100 | 50 to 100 | A (80-100) | – | – | – | – | – | – |
| CCc1cc(/C=C/C(c2cc(Cl)c(Cl)c(Cl)c2)C(F)(F)F)ccc1C(=O)N[C@H](C)CSCC(F)(F)F (stereo partly drawn) [F54, 2-Ethyl-4-((E)-4,4,4-trifluoro-3-(3,4,5-trichlorophenyl)but-1-en-1-yl)-N—((R)-1-((2,2,2-trifluoroethyl)thio)propan-2-yl)benzamide] | 50 to 100 | 50 to 100 | A (80-100) | – | – | – | – | – | – |
| Cc1cc(/C=C/C(c2cc(Br)cc(Br)c2)C(F)(F)F)ccc1C(=O)N[C@H](C)CSCC(F)(F)F (stereo partly drawn) [F57, 4-((E)-3-(3,5-Dibromophenyl)-4,4,4-trifluorobut-1-en-1-yl)-2-methyl-N—((R)-1-((2,2,2-trifluoroethyl)thio)propan-2-yl)benzamide] | 50 to 100 | 50 to 100 | A (80-100) | – | – | – | – | – | – |
